Data taken from the OligoGym collection.
Oligonucleotides are written 5' to 3', each unit as a sugar letter and its base; * is a phosphorothioate linkage, no mark a phosphodiester; rarer units and linkages stand in square brackets, end groups in braces. Plain capitals give the bases only. d = 2'-deoxy (DNA); r = 2'-OH (RNA)

Molecular target: UBE2J1
Experiment: reporter assay of Huesken 2005
Conditions: siRNA
Note: test concentration or dose not given here.

| Substance | normalised inhibition (eCFP-eYFP dual reporter) [%] |
| --- | --- |
| sense rArGrArGrArArGrGrUrUrGrUrCrUrArCrUrUrCdTdT / antisense rGrArArGrUrArGrArCrArArCrCrUrUrCrUrCrUdGdA | 78.8 |
| sense rArGrGrArArArGrArArGrArGrCrArCrUrUrGrCdTdT / antisense rGrCrArArGrUrGrCrUrCrUrUrCrUrUrUrCrCrUdCdA | 70.7 |
| sense rArGrGrArCrArGrCrArUrUrArUrUrArGrCrCrAdTdT / antisense rUrGrGrCrUrArArUrArArUrGrCrUrGrUrCrCrUdTdA | 74.8 |
| sense rArUrArUrArUrCrUrGrGrCrArArArCrGrArArUdTdT / antisense rArUrUrCrGrUrUrUrGrCrCrArGrArUrArUrArUdTdC | 95.9 |
| sense rArUrCrArUrUrArCrCrArUrGrCrGrCrArGrCrCdTdT / antisense rGrGrCrUrGrCrGrCrArUrGrGrUrArArUrGrArUdCdT | 55.2 |
| sense rArUrCrCrArGrGrGrCrCrArCrCrArGrCrCrArAdTdT / antisense rUrUrGrGrCrUrGrGrUrGrGrCrCrCrUrGrGrArUdTdA | 76 |
| sense rArUrGrArArArCrCrArCrCrArArGrCrArUrUrAdTdT / antisense rUrArArUrGrCrUrUrGrGrUrGrGrUrUrUrCrArUdGdG | 68.1 |
| sense rArUrGrGrUrCrGrArUrUrUrGrArArGrUrGrGrGdTdT / antisense rCrCrCrArCrUrUrCrArArArUrCrGrArCrCrArUdTdA | 56.3 |
| sense rArUrUrUrArCrArArGrArUrGrArUrArUrArCrCdTdT / antisense rGrGrUrArUrArUrCrArUrCrUrUrGrUrArArArUdCdA | 47.6 |
| sense rCrArArArUrArArGrCrUrUrUrArArGrGrCrArGdTdT / antisense rCrUrGrCrCrUrUrArArArGrCrUrUrArUrUrUrGdCdC | 56 |
| sense rCrArCrCrArGrCrCrArArGrArGrArCrArArCrCdTdT / antisense rGrGrUrUrGrUrCrUrCrUrUrGrGrCrUrGrGrUrGdGdC | 55.8 |
| sense rCrArGrArArGrUrCrArArUrUrCrArUrCrUrGrGdTdT / antisense rCrCrArGrArUrGrArArUrUrGrArCrUrUrCrUrGdCdC | 60.5 |
| sense rCrArUrCrUrCrArGrGrCrCrArUrCrArUrCrCrUdTdT / antisense rArGrGrArUrGrArUrGrGrCrCrUrGrArGrArUrGdCdT | 64.7 |
| sense rCrCrCrArArCrCrUrGrUrArGrCrUrArArGrArAdTdT / antisense rUrUrCrUrUrArGrCrUrArCrArGrGrUrUrGrGrGdTdA | 78.5 |
| sense rCrCrGrArUrUrUrUrGrArUrGrGrArGrGrArGrUdTdT / antisense rArCrUrCrCrUrCrCrArUrCrArArArArUrCrGrGdAdG | 48 |
| sense rCrCrGrGrGrCrCrCrArGrCrArGrCrArGrArGrUdTdT / antisense rArCrUrCrUrGrCrUrGrCrUrGrGrGrCrCrCrGrGdCdG | 47.4 |
| sense rCrCrUrUrUrCrArUrCrArArCrCrUrArCrCrCrAdTdT / antisense rUrGrGrGrUrArGrGrUrUrGrArUrGrArArArGrGdAdT | 56.2 |
| sense rCrUrCrUrUrArUrArUrUrCrCrGrArCrGrArArUdTdT / antisense rArUrUrCrGrUrCrGrGrArArUrArUrArArGrArGdCdT | 98.8 |
| sense rCrUrGrArCrCrArArGrArArGrCrCrArArArGrAdTdT / antisense rUrCrUrUrUrGrGrCrUrUrCrUrUrGrGrUrCrArGdCdT | 73.1 |
| sense rCrUrGrArCrUrUrUrGrGrCrArUrUrGrGrCrArGdTdT / antisense rCrUrGrCrCrArArUrGrCrCrArArArGrUrCrArGdGdA | 76.4 |
